In patent US9271953B2, “Methods for correction of organ dysfunction” (priority 2013, dated 2016):
Entries after “also recorded” stand apart in the source; their conditions may differ.

Columns and labels:
[1] = test system: patients with connective tissue disorders and/or autonomic dysfunction; assay: Patient studies / case studies with the oral compound; format: in vivo, human; conditions: patients with organ malfunction secondary to poor vagus nerve function
Method: The composition and method of use of the present invention is also unique because it corrects for these numerous causes of dysfunction and includes ingredients in the quantities and form required to work around the genetic, vascular, and/or co-morbid components involved. IBS/gastroparesis/constipation was initially targeted. In patient studies, a response to medication (a bowel movement) occurred within 2-12 hours, without exception. Patients were identified with a mix of co-morbid conditions including chronic fatigue syndrome, fibromyalgia, joint hypermobility and autonomic dysfunction.
The present composition was provided to a number of patients having certain diagnosed diseases, as summarized in Table 1 above and suffering from a variety of medical conditions or symptoms associated with those diseases, again, as summarized above.

[2] = test system: post-ganglionic nicotinic acetylcholine receptors; assay: Oral single agents in patients with damaged pre-ganglionic vagus nerve: organ function; format: in vivo, human
Text: In one embodiment of the invention, transdermal (topical) application of nicotine, applied near the lower right-hand corner of the abdomen stimulates the post-ganglionic nicotinic acetylcholinergic receptor controlling the ileocecal valve, for example, allowing the valve to open. Oral nicotine, however, is ineffective at stimulating the post-ganglionic nicotinic acetylcholinergic nerves in the abdomen, yet it exposes the patient to the direct (and negative) effect on the cerebellum.^38 In numerous patients tested, oral physostigmine or Huperzine A (both inhibitors of acetylcholinesterase, and thus indirect stimulators of both nicotinic and muscarinic acetylcholine receptors) were not effective in stimulating organ function when the pre-ganglionic portion of the vagus nerve was damaged. It is clear that in addition to inhibitors of acetylcholinesterase, other ingredients are necessary to stimulate organ function in this patient population. […] It was only through extensive testing that the inventor was able to discover the proper range of oral ingredients which were effective in stimulating these post-ganglionic nerves.

[3] = test system: post-ganglionic nicotinic acetylcholine receptors
Text: Nicotine is a powerful nicotinic agonist found in the leaves of the tobacco plant (Nicotiana tabacum).

[4] = in vivo; cited from earlier work
IGF-1 = IGF-1 levels in Patient 1; format: in vivo, human; conditions: 2 units/day growth hormone, before compound
Text: Not intending to be bound by theory, and in no way a limitation of the present invention, the invention (excluding nicotine) can be used to stimulate production of human growth hormone, often found to be low in chronic pain syndromes, including disorders of connective tissue, “POTS”, “Hyperadrenergic POTS” and fibromyalgia. Rather than treating the patients with exogenous growth hormone, the present invention instead treats the source of the low growth hormone levels (as measured via IGF-1). Growth hormone levels can then return to normal and dysregulation of the hypothalamic-pituitary-adrenal axis is normalized. […]
Patient 1: Diagnoses: joint hypermobility (judged by the Beighton Scale), autonomic dysfunction (patient failed the Tilt Table Test of autonomic function) and visual and auditory hallucinations, hypothermia. […] Their liver enzymes and kidney function began to show abnormal readings, and pain at the site of the ileocecal valve began to occur. […]

## CC(=O)O[C@H](CC(=O)[O-])C[N+](C)(C)C [Acetyl-L-Carnitine]
[1]
  organ function when Acetyl-L-Carnitine was added to the compound: invariably achieved better organ function

## C/C=C1\[C@H]2C=C(C)C[C@]1(N)c1ccc(=O)[nH]c1C2 [Huperzine A]
[2]; Patient 2, prescribed for mental fatigue
  response to medication: no response
[2]; oral, numerous patients tested
  stimulating organ function when the pre-ganglionic portion of the vagus nerve was damaged: not effective

## CN1CCCC1c1cccnc1 (centres unmarked) [nicotine, Nicotine]
[2]; oral doses of nicotine
  opening the ileocecal valve, arresting gastroparesis/chronic constipation: ineffective
[2]; oral nicotine
  stimulating the post-ganglionic nicotinic acetylcholinergic nerves/receptors (organ function): ineffective; also recorded: not effective
[3]; Patient 1, 7 g transdermal nicotine
  skin side effects: intractable itching, redness, and skin welting
[3]; Patient 1, 7 g transdermal nicotine near the ileocecal valve
  ileocecal valve opening: opened the valve overnight
[3]; transdermal 3-21 mg, lower right-hand quadrant of abdomen
  reversal of chronic constipation, gastroparesis, dysmotility, ileocecal valve and Sphincter of Oddi dysfunction: time: usually within hours
[3]; transdermal 3-21 mg, patients with poor vagus nerve function, valve not physically damaged
  opening of the ileocecal valve: never failed to open the ileocecal valve
[4]
  lethal dosage: 60 mg

## growth hormone: exogenous growth hormone, 2 units/day
IGF-1
  IGF-1 levels raised to the upper normal range: which it did
